Measured values taken from patent US5530141A, “2,4-diaryl-1,3-dithiolanes; 2,4-diaryl-1,3-dioxolanes; 2,4-diaryl-1,3-oxathiolanes; and 2,5-diaryl-1,3-oxathiolanes for the treatment of disorders mediated by platelet activating factor or products of 5-lipoxygenase” (Center for Innovative Technology, priority 1992, dated 1996).
One block for each compound: values may come before it.

Experiments:
RBL 5-LO = target: T1, RBL 5-LO (Rattus norvegicus, UniProt P12527); assay: RBL 5-LO inhibition (Table 2); assay type: biochemical; conditions: unit inferred
T1 construct: cytosol 5-lipoxygenase of rat basophilic leukemia cells (RBL); endogenous in cells; host or cells: rat basophilic leukemia (RBL) cells
T1 sequence (P12527 1-673): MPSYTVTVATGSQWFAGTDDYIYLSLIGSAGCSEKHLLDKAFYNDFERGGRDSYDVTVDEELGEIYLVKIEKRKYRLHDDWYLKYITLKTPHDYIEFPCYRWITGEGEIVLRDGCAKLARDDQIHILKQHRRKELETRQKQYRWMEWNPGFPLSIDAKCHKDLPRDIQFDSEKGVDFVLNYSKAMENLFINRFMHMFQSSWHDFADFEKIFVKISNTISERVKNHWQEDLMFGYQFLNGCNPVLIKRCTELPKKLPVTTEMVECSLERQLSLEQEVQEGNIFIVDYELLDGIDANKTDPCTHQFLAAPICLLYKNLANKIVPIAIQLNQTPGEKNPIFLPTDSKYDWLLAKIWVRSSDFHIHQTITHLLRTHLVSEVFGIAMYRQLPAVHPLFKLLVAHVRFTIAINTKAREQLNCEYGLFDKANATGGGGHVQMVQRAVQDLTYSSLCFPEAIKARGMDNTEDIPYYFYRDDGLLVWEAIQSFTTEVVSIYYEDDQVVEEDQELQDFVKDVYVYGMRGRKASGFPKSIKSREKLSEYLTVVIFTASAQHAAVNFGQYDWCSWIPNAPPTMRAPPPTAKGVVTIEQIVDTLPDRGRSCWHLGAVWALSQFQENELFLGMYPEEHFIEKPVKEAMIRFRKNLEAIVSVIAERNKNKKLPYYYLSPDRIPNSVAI
Description: A wide variety of biological assays have also been used to evaluate the ability of a compound to inhibit the enzyme 5-lipoxygenase. For example, a cytosol 5-lipoxygenase of rat basophilic leukemia cells (RBL) has been widely utilized in studies on leukotriene biosynthesis. Compounds that inhibit 5-lipoxygenase decrease the levels of leukotrienes.

PAF receptor = conditions: cited from earlier work
5-lipoxygenase = conditions: cited from earlier work
[1] = target: T2, specific receptors on human platelet membranes (PAF receptors) (Homo sapiens, UniProt P25105); assay: [3H]PAF binding inhibition on human platelet membranes (Table 1, PAF); conditions: [3H]PAF 0.3 nM, pH 7.0, 4 h, 0° C
T2 construct: Human platelet membranes were prepared from platelet concentrates obtained from the American Red Cross Blood Services; from tissue; host or cells: human platelets (concentrates from American Red Cross Blood Services, Dedham, Mass.), membrane fractions A and B
Method: Human platelet membranes were prepared from platelet concentrates obtained from the American Red Cross Blood Services (Dedham, Mass.). After several washes with platelet wash solution (150 mM NaCl, 10 mM Tris, and 2 mM EDTA, pH 7.5), the platelet pellets were resuspended in 5 mM MgCl2, 10 mM Tris, and 2 mM EDTA at pH 7.0. The cells were then quickly frozen with liquid nitrogen and thawed slowly at room temperature. The freezing and thawing procedure was repeated at least three times. For further fractionation of membrane fragments, the lysed membrane suspension was layered over the top of a discontinous sucrose density gradient of 0.25, 1.03, and 1.5M sucrose prepared in 10 mM MgCl2, 10 mM Tris and 2 mM EDTA, pH 7.0, and centrifuged at 63,500×g for 2 hr. The membrane fractions banding between 0.25 and 1.03M (membrane A) and between 1.03 and 1.5M (membrane B) were collected separately. The protein concentration of the membrane preparations was determined by Lowry's method with bovine serum albumin (BSA) as the standard. The membranes were then separated into smaller fractions (4 ml each) and stored at -80° C. and thawed before use.
b) [^3 H]PAF Binding inhibition:
The ability of [^3 H]PAF to bind to specific receptors on human platelet membranes was evaluated at optimal conditions at pH 7.0 and in the presence of 10 mM MgCl2. Membrane protein (100 ug) was added to a final 0.5 ml solution containing 0.15 pmol (0.3 nM concentration) of [^3 H]PAF and a known amount of unlabeled PAF or PAF receptor antagonist in 10 mM MgCl2, 10 mM Tris and 0.25% BSA at pH 7.0. After incubation for four hours at 0° C., the bound and unbound [^3 H]PAF were then separated through a Whatman GF/C glass fiber filter under vacuum. No degradation of filter bound [^3 H]PAF has been detected under this assay condition. The nonspecific binding was defined as the total binding in the presence of excess unlabeled PAF (1 mM) where no further displacement was found with higher concentrations of either unlabeled PAF or PAF analogs or PAF receptor antagonists. The specific binding was defined as the difference between total binding and nonspecific binding.
To determine the relative potency of tested compounds, [^3 H]PAF binding in the presence of inhibitors was normalized in terms of percent inhibition by assigning the total binding in the absence of inhibitors as 0% inhibition and the total binding in the presence of 1 mM unlabeled PAF as 100%. The percent inhibition by the compound can be calculated by the formula expressed below:
% inhibition=[(Total binding-total binding in the presence of
compound)/nonspecific binding]×100%
The IC50 was calculated as the concentration of the inhibitor necessary to obtain 50% inhibition of the specific [^3 H]PAF binding and was calculated by a nonlinear regression computer software program, GraphPad Inplot, version 3.0 (GraphPad software, San Diego, Calif.). Table 1 provides the IC50 values for a number of 2,4-diaryl-1,3-dithiolanes.

5-LO = target: T3, 5-LO (Rattus norvegicus, UniProt P12527); assay: 5-LO inhibition (Table 1); assay type: biochemical; conditions: for inhibition at 3 µM: read-out: 5-LO, percent @ 3 μM
T3 sequence (P12527 1-673): T1 sequence (P12527 1-673)

T2 sequence (P25105 whole entry): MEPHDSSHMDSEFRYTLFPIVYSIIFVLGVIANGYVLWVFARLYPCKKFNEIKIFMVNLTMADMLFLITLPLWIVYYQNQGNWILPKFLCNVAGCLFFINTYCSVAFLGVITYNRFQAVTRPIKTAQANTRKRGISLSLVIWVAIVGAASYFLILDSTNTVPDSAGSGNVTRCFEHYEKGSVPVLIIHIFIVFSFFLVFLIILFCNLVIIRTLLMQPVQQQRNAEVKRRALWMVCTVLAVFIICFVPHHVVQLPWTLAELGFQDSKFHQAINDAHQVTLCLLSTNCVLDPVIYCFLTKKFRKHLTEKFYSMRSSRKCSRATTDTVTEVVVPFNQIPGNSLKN

Structure (SMILES): CCCCCCCCCCCCCCCCCCNC(=O)OCC(COP(=O)([O-])OCC[n+]1ccsc1)OC (racemic) [CV-3988, rac-3-(N-n-octadecyl-carbamoyloxy-w-methoxypropyl-2-thiazolioethyl phosphate]
- PAF receptor antagonist activity (PAF receptor): PAF receptor antagonist properties

Structure (SMILES): C=CCOc1c(NC(=O)N(O)C(C)(C)C)cc([C@H]2O[C@@H](c3cc(OC)c(OC)c(OC)c3)CS2)cc1OC (relative stereo)
- IC50 (RBL 5-LO): 250 nM

Structure (SMILES): COc1cc([C@H]2CC[C@H](c3cc(OC)c(OC)c(OC)c3)S2)cc(OC)c1OC (relative stereo) [L-653,150, trans-2,5-bis-(3,4,5-trimethoxyphenyl)tetrahydrothiophene]
- effect on the enzyme 5-lipoxygenase (5-lipoxygenase): moderate inhibitor of 5-lipoxygenase
- PAF receptor antagonist activity (PAF receptor): potent PAF antagonist

Structure (SMILES): CCCOc1c(OC)cc([C@H]2CC[C@H](c3cc(OC)c(OC)c(OC)c3)O2)cc1S(C)(=O)=O (relative stereo) [L-659,989, trans-2-(3-methoxy-4-propoxyphenyl-5-methylsulfonyl)-5-(3,4,5-trimethoxyphenyl)tetrahydrofuran]
- PAF receptor antagonist activity (PAF receptor): orally active, potent, competitive PAF receptor antagonist
- equilibrium inhibition constant relative to trans-L-652,731 (PAF receptor; greater than that of trans-L-652,731): 10 times

Structure (SMILES): COc1cc([C@H]2SC[C@H](c3cc(OC)c(OC)c(OC)c3)S2)cc(NC(=O)N(C)O)c1OC (relative stereo) [compound 1, Cis and Trans-2-[3,4-dimethoxy-5-(N-hydroxy-N-methylureidyl)phenyl]-4-(3,4,5-trimethoxyphenyl)-1,3-dithiolane]
- IC50 [1]: 259 nM
- IC50 (5-LO): 220 nM

Structure (SMILES): COc1cc([C@H]2SC[C@H](c3cc(OC)c(OC)c(OC)c3)S2)cc(NC(=O)N(O)C(C)(C)C)c1OC (relative stereo) [compound 4, Cis and Trans-2-[3,4-dimethoxy-5-(N-t-butyl-N-hydroxyureidyl)phenyl]-4-(3,4,5-trimethoxyphenyl)-1,3-dithiolane]
- IC50 [1]: 798 nM
- IC50 (5-LO): 320 nM

Structure (SMILES): C=CCOc1c(NC(=O)N(C)O)cc([C@H]2SC[C@H](c3cc(OC)c(OC)c(OC)c3)S2)cc1OC (relative stereo) [compound 5, Trans-2-[4-allyloxy-3-methoxy-5-(N-hydroxy-N-methylureidyl)phenyl]-4-(3,4,5-trimethoxyphenyl)-1,3-dithiolane]
- IC50 [1]: 561 nM
- IC50 (5-LO): 170 nM

Structure (SMILES): COc1cc([C@H]2CS[C@H](c3cc(OC)c(OCCSc4ccc(O)cc4)c([N+](=O)[O-])c3)S2)cc(OC)c1OC (relative stereo) [compound 7, Trans-2-[4-{2-(4'-hydroxyphenylthio)ethoxy}-3-methoxy-5-nitrophenyl]-4-(3,4,5-trimethoxyphenyl)-1,3-dithiolane]
- inhibition at 3 µM (5-LO): 57%

Structure (SMILES): COc1cc([C@H]2SC[C@H](c3cc(OC)c(OC)c(OC)c3)S2)cc(NC(=O)N(O)c2ccc(Cl)cc2)c1OCCSc1ccc(O)cc1 (relative stereo) [compound 10, Trans-2-[5-(N-(p-chlorophenyl)-N-hydroxyureidyl)-4-{2-(4'-hydroxy-phenylthio)ethoxy}-3-methoxyphenyl]-4-(3,4,5-trimethoxyphenyl)-1,3-dithiolane]
- inhibition at 3 µM (5-LO): 64%

Structure (SMILES): C=CCC1=C[C@@]2(OC)C(=CC1=O)O[C@H](c1ccc(OC)c(OC)c1)[C@H]2C [kadsurenone]
- PAF receptor antagonist activity (PAF receptor): potent, specific and competitive inhibitor of PAF activity at the receptor level

More lines, now with the values ahead:

- IC50 (RBL 5-LO): 1440 nM
Structure (SMILES): COc1cc(C2SCC(c3cc(OC)c(OC)c(OC)c3)S2)cc(CN(O)C(N)=O)c1OC (stereo not drawn)

- IC50 (RBL 5-LO): 850 nM
Structure (SMILES): COc1cc(C2SCC(c3cc(OC)c(OC)c(OC)c3)S2)cc(CN(O)C(C)=O)c1OC (stereo not drawn)

- IC50 (RBL 5-LO): 410 nM
Structure (SMILES): C=CCOc1c(NC(=O)N(O)C(C)(C)C)cc([C@@H]2O[C@@H](c3cc(OC)c(OC)c(OC)c3)CS2)cc1OC (relative stereo)

- IC50 (5-LO): 280 nM
Structure (SMILES): COc1cc([C@H]2SC[C@H](c3cc(OC)c(OC)c(OC)c3)S2)cc(NC(=S)N(C)O)c1OC (relative stereo) [compound 2]

- IC50 [1]: 543 nM
- IC50 (5-LO): 570 nM
Structure (SMILES): C=CCOc1c(NC(=O)N(O)C(C)(C)C)cc([C@H]2SC[C@H](c3cc(OC)c(OC)c(OC)c3)S2)cc1OC (relative stereo) [compound 6, Trans-2-[4-allyloxy-3-methoxy-5-(N-t-butyl-N-hydroxyureidyl)phenyl]-4-(3,4,5-trimethoxyphenyl)-1,3-dithiolane]

- inhibition at 3 µM (5-LO): 41%
Structure (SMILES): COc1cc([C@H]2SC[C@H](c3cc(OC)c(OC)c(OC)c3)S2)cc(N)c1OCCSc1ccc(O)cc1 (relative stereo) [compound 8, Trans-2-[5-amino-4-{2-(4'-hydroxyphenylthio)ethoxy}-3-methoxyphenyl]-4-(3,4,5-trimethoxyphenyl)-1,3-dithiolane]

- IC50 (5-LO): 120 nM
Structure (SMILES): COc1cc([C@H]2SC[C@H](c3cc(OC)c(OC)c(OC)c3)S2)cc(NC(=O)N(C)O)c1OCCSc1ccc(O)cc1 (relative stereo) [compound 9, Trans-2-[5-(N-hydroxy-N-methylureidyl)-4-{2-(4'-hydroxy-phenylthio)ethoxy}-3-methoxyphenyl]-4-(3,4,5-trimethoxyphenyl)-1,3-dithiolane]

- IC50 (5-LO): 92 nM
Structure (SMILES): COc1cc([C@H]2SC[C@H](c3cc(OC)c(OC)c(OC)c3)S2)cc(NC(=O)N(C)O)c1OCCSc1ccc(C#N)cc1 (relative stereo) [compound 13, Trans-2-[5-(N-hydroxy-N-methylureidyl)-4-{2-(4'-cyano-phenylthio)ethoxy}-3-methoxyphenyl]-4-(3,4,5-trimethoxyphenyl)-1,3-dithiolane]

- inhibition at 3 µM (5-LO): 25%
Structure (SMILES): COc1cc([C@H]2CS[C@H](c3cc(OC)c(OCCSc4ccc(O)cc4)c(N(C)C)c3)S2)cc(OC)c1OC (relative stereo) [compound 14, Trans-2-[5-(N,N-dimethylamino)-4-{2-(4'-hydroxyphenylthio)ethoxy}-3-methoxyphenyl]-4-(3,4,5-trimethoxyphenyl)-1,3-dithiolane]

- IC50 [1]: 67.8 nM
- IC50 (5-LO): 240 nM
Structure (SMILES): CCCCN(O)C(=O)Nc1cc(C2SCC(c3cc(OC)c(OC)c(OC)c3)S2)cc(OC)c1OC (stereo not drawn) [compound 3, Trans-2-[3,4-dimethoxy-5-(N-n-butyl-N-hydroxyureidyl)phenyl]-4-(3,4,5-trimethoxyphenyl)-1,3-dithiolane]
